# Assay results from ChEMBL document CHEMBL3507680, “University of Dundee, Gates Library screen for HepG2 cell viability”.
# Test: Human HepG2 cell viability assay in 384 well format
# Format: toxicity, cell-based
# Set-up: dose 125 nL, time 70.5 hour; concentration not given beside the values
# Settings: HepG2 cells, read-out: Inhibition
row,Compound,cytotoxicity at 70.5 h
1,O=C(c1ccccc1)N1CCOC2CNCC[C@H]21 (stereo partly drawn),-7.04%
2,CC(NC(=O)NCC1(c2ccc(Cl)cc2)CC1)c1nncn1C (stereo not drawn),-2.86%
3,O=C(CCc1nc(-c2ccccn2)no1)N1CCCC1c1ccsc1 (stereo not drawn),-10.3%
4,CCCC(=O)N1CCCN(C(=O)c2oc(C)nc2C)CC1,-4.74%
5,CNC(=O)c1cc(-c2ccccc2)nc2ncnn12,7.79%
6,O=C(O)c1cc(-c2ccc3c(c2)OCO3)cc(S(=O)(=O)NC2CC2)c1,-11.6%
7,CN1CCN([C@@H]2CN(C(=O)c3ccnnc3)[C@@H]3CCCO[C@H]23)CC1,-3.3%
8,Cc1nnsc1CN1C[C@@H]2CC[C@H](C1)N(Cc1ccccc1)C2,8.69%
9,C/C=C(\C)CN1C[C@@H](NC(=O)c2ccc(F)c(F)c2)C[C@H]1C(=O)NCC,-12.2%
10,CCOC(=O)CNC(=O)C1OC(c2ccccc2)=NN1C(C)=O (stereo not drawn),-6.97%
11,CC(C)c1nn(C)c(N(C)C)c1CNC1CCOc2c(F)cccc21 (stereo not drawn),-2%
12,Cc1cc(C)n(C2CN(C(=O)Cn3c(C)cc(=O)c4ccccc43)C2)n1,-5.3%
13,CC(=O)c1cccc(OCCCC(=O)N(C)Cc2cnc(C)s2)c1,-6.22%
14,Cc1cc(C(=O)NCc2cccs2)nc(N2CCCC2)n1,-6.4%
15,CCc1ccc(-n2nnc(C(=O)O)c2-c2ccncc2)cc1,-4.02%
16,O=C(NCc1ccco1)[C@@H]1CCO[C@@H]2CCN(c3ncccn3)C[C@@H]21,9.24%
17,CC(C)NC(=O)c1ccc2c(c1)nc1n2CCN(C(C)C)C1,-13.4%
18,COc1c(CNCc2ccnc(N3CCOCC3)c2)c(C)nn1C,-3.59%
19,Cc1cc(CCC2CN(CC3(O)CCCCC3)CCO2)ncn1 (stereo not drawn),19.4%
20,c1cnn(CCNCc2csc(-c3ccc4c(c3)OCO4)n2)c1,-1.83%
21,COc1ccccc1N1CCCC(NC(=O)Nc2cccnc2)C1 (stereo not drawn),8.99%
22,c1ccc2c(N3CCCCC3)cnnc2c1,-6.45%
23,CC(=O)N1C[C@@H]2CC[C@H](C1)N(S(=O)(=O)c1ccc(F)cc1Cl)C2,-6.08%

row,Compound,cytotoxicity at 70.5 h
1,Cc1nc(N2CCN(S(C)(=O)=O)CC2)cc(-n2cnc(C)c2C)n1,-3.21%
2,CCOc1ccc([C@@H]2N[C@H](c3nccs3)Cc3ccsc32)cc1OC,-7.07%
3,Oc1ccc(N2CCN(Cc3cc4c(cc3Br)OCCO4)CC2)cc1,5.3%
4,CC(C)c1nc(C2CCCN2C(=O)c2ccc(N(C)C)nn2)no1 (stereo not drawn),7.67%
5,CC(C)n1ccc(C(=O)OCC2CC(=O)N(Cc3ccccc3)C2)n1 (stereo not drawn),-8.67%
6,COCC(NC(=O)c1ccoc1C)c1cccc(C(F)(F)F)c1 (stereo not drawn),-2.1%
7,N#Cc1cccc(OCCN2CCCC2C(=O)N2CCSCC2)c1 (stereo not drawn),3.62%
8,COc1ncccc1CN1C[C@H]2CCN(c3ccc(C)nn3)C[C@H]2C1,20%
9,Cn1cc(N2CC3(CCN(CC4CC4)C3)CC2=O)cn1 (stereo not drawn),-2.96%
10,O=C1CSC(c2cccnc2)c2c(n(C3CCOCC3)[nH]c2=O)N1 (stereo not drawn),-24.2%
11,Cc1ccc2nc(-c3nc4c([nH]3)CCCNC4=O)cn2c1,-10.1%
12,CCc1ccccc1OC1CN(C(=O)c2ccsc2)C1,-3.52%
13,Cc1cc(=O)n(CC(=O)NCCC(C)C)c(-c2cccc(Cl)c2)n1,-1.79%
14,CN(C1CCc2ccccc2C1)S(C)(=O)=O (stereo not drawn),0.716%
15,Cc1[nH]c(-c2ccccc2)nc1C(=O)N1CCC2(CCCO2)CC1,-2.81%
16,CCCC(C)CS(=O)(=O)NCc1cccnc1N(C)C (stereo not drawn),-1.93%
17,Cc1cnc(NC(=O)N2CCCC2)s1,-12%
18,Cc1csc(N2CCN(C(=O)NCCNc3ncccn3)CC2)n1,-5.98%
19,Fc1ccc(OCCNCCn2cccn2)cc1,-9.89%
20,CC(C)c1nnc2n1CCN(Cc1csc(-c3cnn(C)c3)n1)C2,-2.14%
21,CCCN(C(=O)CN1CCN(CC(C)O)CC1)C1=CCCCC1 (stereo not drawn),35.9%
22,O=S(=O)(NCC1CCN(c2cnccn2)CC1)c1c(F)cccc1F,-9.72%
23,C[C@H]1CN(CC2CCOCC2)C[C@@]12CCN(Cc1cccnc1)C2=O,-9.39%

row,Compound,cytotoxicity at 70.5 h
1,CCc1ncc(C(=O)NCC2CCN(Cc3ccncc3)CC2)cn1,-5.64%
2,CC(NC(=O)NCCCO)c1ccc(-c2ccncc2)cc1 (stereo not drawn),-9.46%
3,CN(C)C(=O)COC[C@@]12CCC[C@@H]1CNC2,-13.5%
4,O=C(NCCNc1ncccn1)C1CCN(C(=O)C2CC2)CC1,-13%
5,Cc1cc(CN2C[C@H]3CC[C@@H]2CN(C2Cc4ccccc4C2)C3)on1,3.93%
6,CN(Cc1ccsc1)C(=O)Cn1c(CS(C)(=O)=O)nc2ccccc21,-1.3%
7,CCOC(=O)c1ccc(S(=O)(=O)NCc2cccnc2N(C)C)cc1,34.2%
8,CC(C)SCc1cccc(NC2CCN(C)C2=O)c1 (stereo not drawn),-15.1%
9,Cc1nc(C)n(CC2CCCN(CCNC(=O)OC(C)(C)C)C2)n1 (stereo not drawn),-0.801%
10,COc1cccc(COCC(=O)N2CCCC(c3nncn3C)C2)c1 (stereo not drawn),-12.7%
11,CC(C)c1noc(C(C)N2CCC(c3nc4ccccc4[nH]3)CC2)n1 (stereo not drawn),-7.42%
12,CN1CC2(CCCN(Cc3ccccc3OCC(=O)O)C2)OC1=O (stereo not drawn),-2.41%
13,O=C(c1n[nH]c(=O)c2ccccc12)N1CCC(O)(CN2CCOCC2)C1 (stereo not drawn),14.5%
14,Cc1nn(C)c(N(C)C)c1CNCCCN(C(C)C)S(C)(=O)=O,8.55%
15,Cc1nnc(NC(=O)N2CCC(N3CCCCC3)CC2)s1,-8.18%
16,Clc1cncc(NCc2cccc(COC3CCOCC3)c2)n1,-6.08%
17,CNC(=O)c1nn(C)cc1NC(=O)C(C)n1ncc(Cl)c1C (stereo not drawn),-6.57%
18,CC(C)(C)C(O)CCNC(=O)c1ccc(F)cc1Cl (stereo not drawn),-16.1%
19,CCn1cnc2c(cnn2-c2cccc(C)c2C)c1=O,45.8%
20,O=C1CN(c2ccc(CNC(=O)Nc3nccs3)cc2)CCN1,1.2%
21,Cc1cnn(CCNCC(O)COc2cccc(C(F)(F)F)c2)c1 (stereo not drawn),0.0235%
22,CS(=O)(=O)NCC1CCCCN1C(=O)c1ccc(Br)s1 (stereo not drawn),-6.12%
23,CCN1Cc2nc(OC)c(CNC(=O)C3CCCN(C)C3)cc2C1=O (stereo not drawn),-5.45%

row,Compound,cytotoxicity at 70.5 h
1,Cc1ccc(NCc2cc(C#N)ccc2F)cc1-n1nnnc1C,-13.2%
2,CCn1nc(C(=O)N2CCNCC2C(=O)Nc2ccc(C)nc2)cc1C (stereo not drawn),3.8%
3,CCOc1ccccc1OC1CCN(C(=O)c2csnn2)CC1,-5.03%
4,Cc1cc2nc(C(=O)NCc3cccnc3N(C)C)cc(C)n2n1,3.6%
5,CC(Cn1cccn1)NCc1csc(-c2ccsc2)n1 (stereo not drawn),-12.1%
6,O=C1NC2(CCN(CCc3ccccc3)CC2)CC1c1ccccc1 (stereo not drawn),-8.33%
7,CC[C@H](Cn1ncc2ccccc2c1=O)NC(=O)c1ccccn1,-7.7%
8,CCn1c(C)nc2cc(NC(=O)CC3CCN(S(C)(=O)=O)CC3)ccc21,-18.6%
9,Cc1cccc(OCCCNC(=O)NC(C)c2nncn2C)c1 (stereo not drawn),-6.42%
10,CCOC(=O)C1CCN(Cc2csc(C(C)(C)C)n2)CC1,-2.2%
11,CN(C)C1COC2(CCN(C(=O)c3cccnc3)CC2)C1 (stereo not drawn),-6.03%
12,Cc1nn(C)c2cn(CC(=O)N3CCc4ccccc4C3)nc12,1.13%
13,NC(=O)c1ccc(N2CCCCC2)c(NC(=O)c2ccc(F)cc2Cl)c1,3.11%
14,CCc1ncc(C(=O)N2CCCN(C3CCCC3)CC2)cn1,-14.6%
15,O=C(Nc1cc(F)ccc1OCC1CCCO1)N1CCSCC1 (stereo not drawn),0.0557%
16,COc1ccccc1COCC(O)CN(C)Cc1cccc(Cl)c1 (stereo not drawn),-23.5%
17,c1ccc(C2CCN(c3ncnc4c3CCNC4)CC2)cc1,-4.79%
18,Cc1noc(Cl)c1CCC(=O)N1CCCCC1Cn1cccn1 (stereo not drawn),1.4%
19,CN(Cc1ccccc1C#N)C1CCN(CCc2ccccn2)CC1,-3.57%
20,CCc1nnc2n1CCN(Cc1cccc3c1OCCO3)C2,21.6%
21,CCc1ccc(CN2CCOC(Cc3cccc(F)c3)C2)nc1 (stereo not drawn),-5.34%
22,CN(Cc1cccnc1)C1CC2(CCN(C(=O)c3cnccn3)CC2)C1,-7.42%
23,Cc1ccc(S(=O)(=O)c2ncccc2CN2CCN(CCO)CC2)cc1,-30.6%

row,Compound,cytotoxicity at 70.5 h
1,CC(C)OC(=O)NCc1ccc(NCc2cnn(C(C)(C)C)c2)cc1,-13.1%
2,COCC(=O)N1C[C@H]2CN(Cc3csc(C)n3)C(=O)[C@H]2C1,-8.09%
3,CCC(CO)N(Cc1ccccn1)C(=O)c1cccc(C#N)c1 (stereo not drawn),-1.64%
4,COc1ccc(C2CCCN2C(=O)NCCCn2cccn2)cc1 (stereo not drawn),-11%
5,COc1ccc(CCC(=O)Nc2ccncc2C)cc1,-9.71%
6,O=C(NCC1CCCO1)c1coc(Cn2cnc3ccccc32)n1 (stereo not drawn),-4.46%
7,OCC1CCCN1c1cc(NCCc2nccs2)ncn1 (stereo not drawn),0.047%
8,Cn1cc(-c2nc(CN3CCCCC3Cn3cncn3)cs2)cn1 (stereo not drawn),19.3%
9,Cc1ncsc1CN1CC[C@H]2OCC[C@@]2(C(=O)NC2CC2)C1,-2.8%
10,Cc1ccc(C(=O)N(C)Cc2ccc(Br)o2)c(=O)[nH]1,-2.83%
11,CCOC(=O)C1CCN(Cc2c(O)ccc3oc4c(c23)CCCC4)CC1,11.2%
12,O=C(CSC1=NS(=O)(=O)c2cc(F)ccc2N1)c1ccc(Cl)cc1,-17.3%
13,Cc1nccnc1N1Cc2cnc(CC(C)C)nc2C1,-6.3%
14,CC(=O)c1c(F)cccc1N1CCC(CS(N)(=O)=O)CC1,-10.5%
15,CN(C)CCOCc1cncc2c1CCN(C1CCOCC1)C2,-11.2%
16,OCC1CCCCN1Cc1cc(O)c2cccc(F)c2n1 (stereo not drawn),20.1%
17,O=C(Nc1nc2c(s1)CN(S(=O)(=O)C1CC1)CC2)C1CC1,27%
18,COc1ccnc(N2CCN(C(=O)NCc3ccc(C)s3)CC2)n1,1.2%
19,Cc1cc(C)n(CC2CN(CCC(=O)NC3CCCCC3)CCO2)n1 (stereo not drawn),-9.5%
20,COCC(=O)N1CCN(S(=O)(=O)c2ccccc2)[C@H]2CS(=O)(=O)C[C@H]21,-7.41%
21,Cn1nc(C(=O)NCc2ccc(OC3CCCCC3)nc2)ccc1=O,21.9%
